For series [1], the system named is HCV replicon (Huh-7 luc/neo, NS3-NS5B of HCV type 1b). The experiment in a line: HCV replicon assay (Huh-Luc, luciferase readout). The note with it: Huh-Luc cells, HCV type 1b replicon, three days incubation, luciferase activity. Format: cell-based. The text has this:
The compounds of formula I were examined for activity in the inhibition of HCV RNA replication in a cellular assay aimed at identifying compounds that inhibit a HCV functional cellular replicating cell line, also known as HCV replicons. The cellular assay was based on a bicistronic expression construct, as described by Lohmann et al. (1999), Science vol. 285 pp. 110-113 with modifications described by Krieger et al. (2001), Journal of Virology 75: 4614-4624, in a multi-target screening strategy.
The assay utilized the stably transfected cell line Huh-7 luc/neo (hereafter referred to as Huh-Luc). This cell line harbors an RNA encoding a bicistronic expression construct comprising the wild type NS3-NS5B regions of HCV type 1b translated from an Internal Ribosome Entry Site (IRES) from encephalomyocarditis virus (EMCV), preceded by a reporter portion (FfL-luciferase), and a selectable marker portion (neoR, neomycine phosphotransferase). The construct is bordered by 5′ and 3′ NTRs (non-translated regions) from HCV type 1b. Continued culture of the replicon cells in the presence of G418 (neo^R) is dependent on the replication of the HCV RNA. The stably transfected replicon cells that express HCV RNA, which replicates autonomously and to high levels, encoding inter alia luciferase, were used for screening the antiviral compounds.
The replicon cells were plated in 384 well plates in the presence of the test and control compounds which were added in various concentrations. Following an incubation of three days, HCV replication was measured by assaying luciferase activity (using standard luciferase assay substrates and reagents and a Perkin Elmer ViewLux™ ultraHTS microplate imager). Replicon cells in the control cultures have high luciferase expression in the absence of any inhibitor. The inhibitory activity of the compound on luciferase activity was monitored on the Huh-Luc cells, enabling a dose-response curve for each test compound. EC50 values were then calculated, which value represents the amount of the compound required to decrease the level of detected luciferase activity by 50%, or more specifically, the ability of the genetically linked HCV replicon RNA to replicate.
(A replicon is a self-replicating genome or part of one, used to study replication in cells.)

For another series, the system named is Huh7-CMV-Luc cells. The experiment in a line: Cellular toxicity in Huh7-CMV-Luc replicon assay. In kind it is cell-based. The note with it: three days incubation, Luc activity, read-out: CC50 (μM) (Huh-7). As to the method:
(§1) Cellular toxicity was determined in the Huh7-CMV-Luc replicon assay. Replicon cells (2500 cells/well), stably transformed with a luciferase reporter gene under control of the cytomegalovirus (CMV) constitutive promotor, were cultured in the presence or absence of test compound concentrations. After three days of incubation at 37° C. in a humidified 5% CO2 atmosphere, cell proliferation was quantified by measuring the Luc activity, and expressed as CC50 values (cytotoxicity, 50% inhibitory concentration of cell growth). Tests were performed in 384-well plates.

For series [2], the system named is wild type human immunodeficiency virus (HIV) strain IIIB. Nature of the series: HIV assay in MT4 LTR-EGFP cells. In kind it is cell-based, HIV-1. Particulars: three days after infection. How it is done: (§2) Compounds of the invention were tested for their potency against wild type human immunodeficiency virus (HIV). Antiviral activity was evaluated using a cellular assay performed according to the following procedure. The human T-cell line MT4 was engineered with Green Fluorescent Protein (GFP) and a HIV-specific promoter, HIV-1 long terminal repeat (LTR). This cell line, designated MT4 LTR-EGFP, can be used for the in vitro evaluation of anti-HIV activity of investigational compounds. In HIV-1 infected cells, the Tat protein is produced, which upregulates the LTR promotor and eventually leads to stimulation of the GFP reporter production, allowing to measure ongoing HIV-infection fluorometrically. Effective concentration values such as 50% effective concentration (EC50) can be determined and are usually expressed in μM. An EC50 value is defined as the concentration of test compound that reduces the fluorescence of HIV-infected cells by 50%. Monitoring of HIV-1 infection was done using a scanning microscope. Image analysis allows very sensitive detection of viral infection. Measurements were done before cell necrosis, which usually takes place about five days after infection, in particular measurements were performed three days after infection. The column IIIB in the table list the EC50 values against the wild type strain IIIB.

For the next series, the system named is MT-4 cells. The experiment in a line: Cellular toxicity in the HIV cell-line (MT-4). In kind it is cell-based, human. How it is done: as §2
(§3) Also the HIV activity is given (EC50 HIV (μM)) and the cellular toxicity in the HIV cell-line (CC50 (μM) (MT-4)).

The nature of series [3]: Cellular toxicity in Huh7-CMV-Luc replicon assay. Format: cell-based. Particulars: human, Huh7-CMV-Luc cells, three days incubation, Luc activity; read-out: CC50 (μM) (Huh-7). As to the method: as §1
Series [4] is described as follows: Cellular toxicity in the HIV cell-line (MT-4). In kind it is cell-based, human. Particulars: human. As to the method:
as §2, §3

Where [5] appears, read: Human immunodeficiency virus 1, IIIB, 72 h.

From patent US8399429B2, “Uracyl cyclopropyl nucleotides” (Janssen Products, LP, priority 2008, dated 2013) come the findings set out here.

The term EC50 denotes the concentration that produces a half-maximal response. The low end stands for greater potency, the high end for weaker potency. What is called CC50 is the concentration that lowers cell viability or growth by half.

Take `C[C@H](NP(=O)(OC[C@H]1O[C@@H](n2ccc(=O)[nH]c2=O)C2(CC2)[C@@H]1O)Oc1ccc(Cl)cc1)C(=O)OCc1ccccc1` (single isomer, unassigned) [Compound 7b]: the EC50 in series [1] is 3.4 µM; in series [2] it was above 98 µM. Further, the CC50 was above 98 µM with Huh7-CMV-Luc cells and above 90 µM with MT-4 cells.
In the case of `Cc1ccc(C(C)C)c(OP(=O)(N[C@@H](C)C(=O)OCc2ccccc2)OC[C@H]2O[C@@H](n3ccc(=O)[nH]c3=O)C3(CC3)[C@@H]2O)c1` (stereo partly shown) [Compound 22], the EC50 was determined as 9.2 µM in series [1] (Hepatitis C virus, Huh-7, 72 h) and 1.65 µM in series [2] (setting [5]). The 50% cytotoxic concentration (CC50) at 3 days in series [3] was above 32 µM. The 50% cytotoxic concentration (CC50) in series [4] came to 2.1 µM.
For `CCCCCCCCOC(=O)[C@H](C)NP(=O)(OC[C@H]1O[C@@H](n2ccc(=O)[nH]c2=O)C2(CC2)[C@@H]1O)Oc1ccc(Cl)cc1` (stereo partly shown) [Compound 23] the same measures were 11.2 µM, above 98 µM, above 32 µM and above 30 µM.
For `CCC(C)OC(=O)[C@H](C)NP(=O)(OC[C@H]1O[C@@H](n2ccc(=O)[nH]c2=O)C2(CC2)[C@@H]1O)Oc1ccccc1` (stereo partly shown) [Compound 24] the same measures were 12.4 µM, above 98 µM, above 98 µM and above 98 µM.
Turning to `Cc1ccc(C(C)C)cc1OP(=O)(N[C@@H](C)C(=O)OCc1ccccc1)OC[C@H]1O[C@@H](n2ccc(=O)[nH]c2=O)C2(CC2)[C@@H]1O` (stereo partly shown) [Compound 25], the EC50 in series [1] (Hepatitis C virus, Huh-7, 72 h) is 23.1 µM; in series [2] (setting [5]) it was above 98 µM. In addition, the CC50 at 3 days in series [3] was above 32 µM. Besides, in series [4], the 50% cytotoxic concentration (CC50) was 23 µM.
In the same order, the values of `CCOC(=O)C1(NP(=O)(OC[C@H]2O[C@@H](n3ccc(=O)[nH]c3=O)C3(CC3)[C@@H]2O)Oc2ccc(Cl)cc2)CCC1` (stereo partly shown) [Compound 26] are 73.7 µM, above 98 µM, above 98 µM and above 98 µM.
With `COC(=O)C(C)(C)NP(=O)(OC[C@H]1O[C@@H](n2ccc(=O)[nH]c2=O)C2(CC2)[C@@H]1O)Oc1ccccc1` (stereo partly shown) [Compound 27], the EC50 in series [1] (Hepatitis C virus, Huh-7, 72 h) was 91.4 µM; in series [2] (setting [5]) it was above 98 µM. For the same compound, the CC50 at 3 days in series [3] is above 98 µM. Further, the CC50 in series [4] was above 98 µM.
As for `CC(C)OC(=O)C(C)(C)NP(=O)(OC[C@H]1O[C@@H](n2ccc(=O)[nH]c2=O)C2(CC2)[C@@H]1O)Oc1ccccc1` (stereo partly shown) [Compound 28], the EC50 was above 98 µM in series [1] (Hepatitis C virus, Huh-7, 72 h) and above 98 µM in series [2] (setting [5]). Further, the cytotoxic concentration (CC50) at 3 days in series [3] is above 98 µM. The compound also gave a cytotoxic concentration (CC50) in series [4] above 98 µM.
As to `CCOC(=O)C1(NP(=O)(OC[C@H]2O[C@@H](n3ccc(=O)[nH]c3=O)C3(CC3)[C@@H]2O)Oc2ccccc2)CC1` (stereo partly shown) [Compound 29], the EC50 in series [1] (Hepatitis C virus, Huh-7, 72 h) was above 98 µM; in series [2] (setting [5]) it was above 98 µM. Further, in series [3], the CC50 at 3 days was above 98 µM. In addition, in series [4], the CC50 was above 98 µM.
With `C[C@H](NP(=O)(OC[C@H]1O[C@@H](n2ccc(=O)[nH]c2=O)C2(CC2)[C@@H]1O)Oc1ccccc1)C(=O)OC(C)(C)C` (stereo partly shown) [Compound 30], the half-maximal effective concentration (EC50) was above 98 µM in series [1] (Hepatitis C virus, Huh-7, 72 h) and above 98 µM in series [2] (setting [5]). Also, the 50% cytotoxic concentration (CC50) at 3 days in series [3] was above 98 µM. Moreover, the CC50 in series [4] is above 98 µM.
With `CC[C@H](NP(=O)(OC[C@H]1O[C@@H](n2ccc(=O)[nH]c2=O)C2(CC2)[C@@H]1O)Oc1ccccc1)C(=O)OC(C)C` (stereo partly shown) [Compound 31], the EC50 in series [1] (Hepatitis C virus, Huh-7, 72 h) was above 98 µM; in series [2] (setting [5]), above 95 µM. The cytotoxic concentration (CC50) at 3 days in series [3] is above 98 µM. The same compound returned a CC50 in series [4] above 98 µM.
In the case of `CCOC(=O)C1(NP(=O)(OC[C@H]2O[C@@H](n3ccc(=O)[nH]c3=O)C3(CC3)[C@@H]2O)Oc2ccccc2)CCC1` (stereo partly shown) [Compound 32], the EC50 in series [1] (Hepatitis C virus, Huh-7, 72 h) is above 98 µM; in series [2] (setting [5]) it was above 98 µM. Also, the 50% cytotoxic concentration (CC50) at 3 days in series [3] was above 98 µM. Also, the CC50 in series [4] is above 98 µM.
On to `CCOC(=O)C1(NP(=O)(OC[C@H]2O[C@@H](n3ccc(=O)[nH]c3=O)C3(CC3)[C@@H]2O)Oc2ccc(Cl)cc2)CC1` (stereo partly shown) [Compound 33], for which the half-maximal effective concentration (EC50) was above 98 µM in series [1] (Hepatitis C virus, Huh-7, 72 h) and above 98 µM in series [2] (setting [5]). For the same compound, the CC50 at 3 days in series [3] is above 98 µM. This compound also had a CC50 in series [4] above 98 µM.
